# Tests used:
# [1] = molecular target: T1, DES 1 (Homo sapiens, UniProt O15121); conditions: Zheng et al. 2006; Szkudelski et al. 2006; cited from earlier work
# T1 sequence (O15121 1-323): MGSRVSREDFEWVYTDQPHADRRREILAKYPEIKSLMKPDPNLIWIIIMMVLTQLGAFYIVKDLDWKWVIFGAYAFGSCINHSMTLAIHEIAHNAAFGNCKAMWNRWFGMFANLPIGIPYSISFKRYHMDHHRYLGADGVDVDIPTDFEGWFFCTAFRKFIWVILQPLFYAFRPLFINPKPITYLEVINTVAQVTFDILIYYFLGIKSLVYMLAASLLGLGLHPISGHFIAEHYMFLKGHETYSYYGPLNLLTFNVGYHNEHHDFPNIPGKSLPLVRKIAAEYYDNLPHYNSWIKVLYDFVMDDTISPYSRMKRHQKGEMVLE
# [2] = test system: Sprague-Dawley rats; assay: Glucose tolerance test (glucose 1 g/kg IP) in dexamethasone-treated rats; assay type: in vivo, rat; conditions: dexamethasone vs vehicle
# Experimental: (§1) (A) Sprague-Dawley rats were treated with myriocin (300 μg/Kg, IP, solid bars) or saline (open bars) for two weeks prior to giving administering dexamethasone (40 μg/Kg, IP) or vehicle (5% ethanol) every 12 hours for 36 hours. Animals were euthanized by CO2 inhalation, livers were removed, and ceramide levels were assessed as described in SOM-Methods. Shown are mean ceramide levels+/−S.E.M, n=6 per group. The asterisk denotes that the sample was statistically different from vehicle-treated controls, p<0.05, student's t-test. (B) Livers were obtained as in A, above, and protein and mRNA were extracted as described in SOM-Methods. Levels of transcripts (solid bars) encoding serine palimitoyl transferase isoforms 1 and 2 (SPT1 and SPT2), dihydroceramide synthases (DCS) TL1, UOG, and TRH3, glucosylceramide synthase (GCS), and acid ceramidase (AC) transcripts were obtained by reverse-transcriptase polymerase chain reaction, normalized to β-actin. SPT2 protein levels (white bars) were detected by immunoblotting with an antibody from Cayman Chemicals (Ann Arbor, Mich.) and quantified on a Kodak Image Station 2000R (Rochester, N.Y.). Data represent the fold-change in transcript or protein in dexamethasone-treated animals relative to vehicle controls. […] (C and D) Rats were challenged with glucose (1 g/kg) given intraperitoneally (IP) following treatment with dexamethasone (squares), ethanol carrier (triangles), myriocin (open shapes), or saline (solid shapes) as in A, above. Tail vein blood (3 μl) was sampled for glucose (C)(using the Glucometer Elite from Bayer Corp., Tarrytown, N.Y.) or insulin (D) (using an Elisa kit from Linco Diagnostics, Springfield, Mo.). […] (E-G) Hyperinsulinemic euglycemic clamps were performed on animals (n=4 per group) treated as in A, above, as described in SOM-Methods. Data from animals receiving myriocin are depicted in solid bars. (E) The glucose infusion rate required to maintain normal glycemia during insulin infusion ([…]) was calculated as the average infusion rate during the 60 minute steady state. (F) Hepatic glucose output was estimated by the disappearance of [^14C] glucose from a bolus dose given during the steady state minus the glucose infusion rate. (G) Disappearance of a bolus dose of [^3H] 2-deoxyglucose from the bloodstream was used to estimate the rate of whole body glucose uptake.
# Tail vein blood (3 μl) was sampled for glucose determination (Hitachi 911 clinical chemistry analyzer, Roche, Indianapolis, Ind. or Glucometer Elite, Bayer Corp., Tarrytown, N.Y.)-30 minutes, immediately before and 15, 30, 45, 60, 90, and 120 min after glucose administration. Additionally, serum was collected and analyzed for insulin by Elisa (Linco Diagnostics, Springfield, Mo.).
# [3] = test system: Sprague dawley rats; assay: Hyperinsulinemic euglycemic clamps of dexamethasone treated rats; assay type: in vivo, rat; conditions: plasma, Dexamethasone-treated (Saline or Myriocin), mean ± standard error, n=4
# Experimental: as §1
# To definitively evaluate effects on insulin sensitivity, as well as to distinguish whether the treatment protocols differentially affected glucose uptake in skeletal muscle or hepatic output by the liver, hyperinsulinemic-euglycemic clamps with D-[U-^14C] glucose and 2-deoxy-D-[2,6-^3H] glucose tracers were performed.
# Clamps were performed in conscious unrestrained animals using swivels and tethers (Instech, Plymouth Meeting, Pa.) to allow uninterrupted movement of the animal without disruption of infusion lines. Hyperinsulinemia was initiated by intravenous infusion of insulin (10 mU/kg/min at a flow rate of 4 μL/min). Blood was sampled from arterial lines in 7 minute intervals and analyzed with a Beckman Glucose analyzer II (Beckman Coulter, Fullerton, Calif.). Euglycemia was maintained by variable infusion of 20% dextrose. Steady state was achieved approximately 90 minutes after initiating hyperinsulinemia and maintained for 30 minutes. Glucose infusion rates were calculated as the average glucose infusion rate during the 30 minute steady state. Additional blood samples were taken before initiating hyperinsulinemia and at the end of the clamp for analysis of insulin and free fatty acids.
# [4] = test system: Sprague dawley rats; assay: as above; assay type: in vivo, rat; conditions: plasma, 60 minute steady state; Dexamethasone-treated (Saline or Myriocin); mean ± standard error, n=4
# [5] = test system: genes which control ceramide synthesis or degradation; assay: RT-PCR of genes which control ceramide synthesis or degradation after TNFα; assay type: cell-based
# Experimental: Using RT-PCR, mRNA levels of serine palmitoyltransferase subunits (LCB1 and LCB2), acid ceramidase (AC), glucosylceramide synthase (GCS), ceramide kinase (CerK), and ceramide synthase isoforms 1-6 (Cers/Lass 1-6) were evaluated.
# The possibility that TNFαα-stimulation of lipolysis can account for the increase in ceramide by stimulating the formation of intracellular palmitoyl-CoA, which could serve as a precursor for ceramide biosynthesis, was considered. […] Instead, it appears that TNFα regulates the expression or activity of enzymes that control intracellular ceramide levels. Using RT-PCR, changes in mRNA levels of genes which control ceramide synthesis or degradation were evaluated. […] The analysis was extended to consider several ceramide synthase (CerS/LASS) isoforms, which selectively catalyze the incorporation of distinct fatty acids into the sphinganine backbone. TNFα-induced an impressive 8 and 5-fold increase in CerS1 and CerS4, respectively. These enzymes preferentially catalyze the production of ceramide species containing the stearate fatty acid.
# [6] = test system: Sprague-Dawley rats; assay: Lipid infusion with hyperinsulinemic euglycemic clamps; assay type: in vivo, rat; conditions: for Glucose, During Clamp / FFA, Before Clamp / FFA, Before Infusion / FFA, During Clamp / Glucose, Before Clamp / Glucose, Before Infusion / Insulin, Before Clamp / Insulin, Before Infusion / Insulin, During Clamp: plasma, mean ± standard error, n=4; for Glucose, During Clamp: 30 minute steady state
# Text: The more common mechanism by which insulin resistance likely develops in the obese is through the accumulation of fats in tissues not-suited for lipid storage. Indeed, intramyocellular lipid levels inversely correlate with insulin sensitivity, and are one of the best predictors of insulin resistance in humans. To mimic this condition in rats, a 20% lard oil-heparin infusate was delivered into the bloodstream of Sprague-Dawley rats via jugular catheters. […] To assess muscle insulin sensitivity during the infusion, hyperinsulinemic-euglycemic clamps were performed on conscious, unrestrained rats during the terminal 90 minutes of the protocol. Lard oil infusion decreased insulin-stimulated glucose disposal to 47% of glycerol treated control subjects (FIG. 3C). […] Differences in the glucose infusion rats could not be accounted for by the slight differences in the glucose concentration that was achieved during the clamp nor to differences in steady-state insulin concentrations (Table 3).
# Male Sprague-Dawley rats (˜250 grams) were randomly divided into nine different groups. Glycerol, 20% lard oil, or 20% soy oil emulsions were prepared as previously described (Stein 1997) and infused at a constant rate of 5 mL/Kg/hour. To activate lipoprotein lipase, heparin (6 units/hour) was added to the triglyceride emulsions. Lipids were infused in animals treated with control injections (normal saline), myriocin (100 μg/Kg IP) or cycloserine (50 mg/Kg IP). Drugs were given 12 hours prior to lipid infusion and equivalent doses were given intravenously at the time of infusion. […] Following lipid infusion animals were deeply anesthetized with sodium pentobarbital and soleus muscles were rapidly dissected out and rapidly frozen in liquid nitrogen.
# Clamps were performed in conscious unrestrained animals using swivels and tethers (Instech, Plymouth Meeting, Pa.) to allow uninterrupted movement of the animal without disruption of infusion lines. Hyperinsulinemia was initiated by intravenous infusion of insulin (10 mU/kg/min at a flow rate of 4 μL/min).
# [7] = test system: soleus muscles; assay: Isolated soleus muscle strips incubated with free fatty acids; conditions: cycloserine 1 mM or myriocin 10 μM
# [8] = Intralipid infusion, with or without myriocin or cycloserine
# [9] = lard oil infusion, with or without myriocin or cycloserine
compound,measurement,setting,value
Oc1ccc(C=Cc2cc(O)cc(O)c2)cc1 [resveratrol],inhibition of DES 1,[1],inhibit DES 1
CC1=C(/C=C/C(C)=C/C=C/C(C)=C/C(=O)Nc2ccc(O)cc2)C(C)(C)CCC1 [fenretinide],inhibition of DES 1,[1],inhibit DES 1
C[C@@H]1C[C@H]2[C@@H]3CCC4=CC(=O)C=C[C@]4(C)[C@@]3(F)[C@@H](O)C[C@]2(C)[C@@]1(O)C(=O)CO [Dexamethasone],increase in fasting blood glucose,[2],13%
same,increase in fasting insulin concentrations,[2],2.8 fold
same,"Insulin, During Clamp",[3]; steady state,6.7 ± 1.3 ng/mL
same,FFA,[3]; Before Clamp by layout,211 ± 38 µM
same,"Glucose, Before Clamp",[3],139.0 ± 3.1 mg/dL
same,"Insulin, Before Clamp",[3],4.36 ± 2.34 ng/mL
same,"Glucose, During Clamp",[4],131.1 ± 5.1 mg/dL
TNFα,expression of glucosylceramide synthase (mRNA),[5],markedly reduced expression
same,expression of serine palmitoyltransferase subunits LCB1 and LCB2 (mRNA),[5],increased expression
same,increase in CerS1 (mRNA),[5],8 fold
same,increase in CerS4 (mRNA),[5],5 fold
N[C@@H]1CON=C1O [L-cycloserine],insulin-stimulated glucose disposal / insulin resistance,[6]; [8],Neither myriocin nor cycloserine prevented
same,muscle DAG levels,[6]; [8],Neither myriocin nor cycloserine prevented
same,ceramide in skeletal muscle,[6]; [9],blocked ceramide synthesis
same,diacylglycerol (DAG) in muscle,[6]; [9],Neither myriocin nor cycloserine reduced DAG
same,glucose utilization in clamp,[6]; lard-infused animals,restored glucose utilization
same,"Glucose, During Clamp",[6]; Lipid: Glycerol,111.0 ± 3.0 mg/dL
same,"Glucose, During Clamp",[6]; Lipid: Lard oil (PBS or drug),106.6 ± 2.6 mg/dL
same,"Glucose, During Clamp",[6]; Lipid: Soy oil (PBS or drug),106.2 ± 0.44 mg/dL
same,"FFA, Before Clamp",[6]; Lipid: Glycerol,0.489 ± 0.10 mM
same,"FFA, Before Infusion",[6]; Lipid: Glycerol,0.562 ± 0.10 mM
same,"FFA, During Clamp",[6]; Lipid: Glycerol,0.501 ± 0.11 mM
same,"Glucose, Before Clamp",[6]; Lipid: Glycerol,113.0 ± 3.2 mg/dL
same,"Glucose, Before Infusion",[6]; Lipid: Glycerol,104.0 ± 13.1 mg/dL
same,"Insulin, Before Clamp",[6]; Lipid: Glycerol,9.19 ± 0.20 ng/mL
same,"Insulin, Before Infusion",[6]; Lipid: Glycerol,0.659 ± 0.11 ng/mL
same,"Insulin, During Clamp",[6]; Lipid: Glycerol,12.08 ± 0.03 ng/mL
same,"FFA, Before Clamp",[6]; Lipid: Lard oil (PBS or drug),1.53 ± 0.19 mM
same,"FFA, Before Infusion",[6]; Lipid: Lard oil (PBS or drug),0.672 ± 0.14 mM
same,"FFA, During Clamp",[6]; Lipid: Lard oil (PBS or drug),2.12 ± 0.89 mM
same,"Glucose, Before Clamp",[6]; Lipid: Lard oil (PBS or drug),101.6 ± 7.1 mg/dL
same,"Glucose, Before Infusion",[6]; Lipid: Lard oil (PBS or drug),100.6 ± 6.4 mg/dL
same,"Insulin, Before Clamp",[6]; Lipid: Lard oil (PBS or drug),2.18 ± 0.76 ng/mL
same,"Insulin, Before Infusion",[6]; Lipid: Lard oil (PBS or drug),0.793 ± 0.15 ng/mL
same,"Insulin, During Clamp",[6]; Lipid: Lard oil (PBS or drug),16.27 ± 2.69 ng/mL
same,"FFA, Before Clamp",[6]; Lipid: Soy oil (PBS or drug),1.51 ± 0.23 mM
same,"FFA, Before Infusion",[6]; Lipid: Soy oil (PBS or drug),1.02 ± 0.32 mM
same,"FFA, During Clamp",[6]; Lipid: Soy oil (PBS or drug),2.10 ± 0.77 mM
same,"Glucose, Before Clamp",[6]; Lipid: Soy oil (PBS or drug),124.0 ± 10.8 mg/dL
same,"Glucose, Before Infusion",[6]; Lipid: Soy oil (PBS or drug),102.3 ± 7.1 mg/dL
same,"Insulin, Before Clamp",[6]; Lipid: Soy oil (PBS or drug),3.13 ± 1.0 ng/mL
same,"Insulin, Before Infusion",[6]; Lipid: Soy oil (PBS or drug),1.12 ± 0.17 ng/mL
same,"Insulin, During Clamp",[6]; Lipid: Soy oil (PBS or drug),14.38 ± 0.67 ng/mL
same,linoleate effects on 2-DOG uptake,[7]; 1 mM linoleate,did not alter linoleate effects
same,linoleate effects on DAG accumulation,[7]; 1 mM linoleate,did not alter linoleate effects
same,DAG in palmitate-treated muscles,[7]; 1 mM palmitate,without affecting DAG
same,palmitate effect on insulin-stimulated 2-deoxyglucose uptake,[7]; 1 mM palmitate,completely negated the antagonistic effects of palmitate
same,palmitate-induced ceramide accumulation,[7]; 1 mM palmitate,prevented palmitate-induced ceramide accumulation

# Source: US20100048714A1, “Methods and Compositions Related to Inhibition of Ceramide Synthesis” (University of Utah Research Foundation, priority 2006, published 2010)
